# Measured values: patent US12492195B2, “Preparation method for and crystal form of 3-aryloxy-3-five-membered heteroaryl-propylamine compound” (Zhangzhou Pien Tze Huang Pharmaceutical Co., Ltd., priority 2020, dated 2025)
# Assay: Pharmacokinetic test in rat
# Assay type: in vivo
# Conditions: PO 10 mg/kg
# Protocol: A certain amount of sample was weighed and dissolved in deionized water to prepare 1 mg/mL of solution. Male SD rats were used as test animals. The dose of single intravenous (IV) injection was 2 mg/kg, and the dose of oral (PO) administration was 10 mg/kg. Each group had three rats. The rats in oral group were fasted for 10-14 hours before administration, and were fed 4 hours after administration. Blood collection time points of animals were before administration, and 5 min, 15 min, 30 min, 1 h, 2 h, 4 h, 6 h, 8 h, and 24 h after administration for intravenous administration; before administration, and 15 min, 30 min, 1 h, 2 h, 4 h, 6 h, 8 h and 24 h after administration for oral administration. About 0.25 mL of blood was collected via the jugular vein from each animal, and heparin sodium was used for anticoagulation. After collecting the blood samples, the blood samples were placed on ice and centrifuged to separate the plasma (centrifugation conditions: 8000 rpm, 6 min, 4° C.). The collected plasma was stored at −80° C. before analysis. 50 μL of plasma sample was taken into 1.5 mL centrifuge tube, 250 μL of internal standard solution was added, and the same volume of methanol rather than internal standard solution was added in the blank group. […]
smiles,measurement,value
"CNCC[C@H](Oc1cccc2ccccc12)c1cccs1 [Duloxetine (S configuration), Duloxetine, reference compound]",Tmax,50 min
